From US20040033273A1, “Withasol and methods of use” (AyurCore, Inc., priority 2001, published 2004)

Test system: BALB/c mouse implanted with ascitic sarcoma (S-180), CP treated
Details: for Hb / Platelet Count (×10^3/mcl) / RBC Count (×10^6/mcl) / WBC Difference Count (%) Lymphocytes / WBC Difference Count (%) Polymorph / WBC Total Count (×10^3/mcl): CP +: CP 150 mg/kg ip day 11, coded drug 100 mg/kg (vehicle for CP alone) po day 1-15, blood day 16; for Difference in Weight (g) from Day 1 to 16: CP +: S-180 bearing antigen-challenged mice, CP 150 mg/kg ip day 11, coded drug 100 mg/kg (vehicle for CP alone) po day 1-15; for change in body weight / change in HA antibody titers / change in HL antibody titers / change in hemoglobin content / change in platelet counts / change in red cell counts / change in white cell differential counts / change in white cell total counts: vs group IV (tumor +, CP +, vehicle), drug po day 1-15, CP 150 mg/kg ip day 11, ANOVA; for change in HA antibody titers / change in HL antibody titers / change in hemoglobin content / change in platelet counts / change in red cell counts / change in white cell differential counts / change in white cell total counts: day 16
[1] = Tumor +, CP +: CP 150 mg/kg ip day 11, coded drug 100 mg/kg (vehicle for CP alone) po day 1-15, serum day 16, mean +/- SD
[2] = tumor-bearing CP-treated mice, vs CP alone

SMILES | Hb (Tumor +, mean +/- SD) | Platelet Count (×10^3/mcl) (Tumor +, mean +/- SD) | RBC Count (×10^6/mcl) (Tumor +, mean +/- SD) | WBC Difference Count (%) Lymphocytes (Tumor +, mean +/- SD) | WBC Difference Count (%) Polymorph (Tumor +, mean +/- SD) | WBC Total Count (×10^3/mcl) (Tumor +, mean +/- SD) | HA Titre (Log2) [1] | Difference in Weight (g) from Day 1 to 16 (Tumor +, mean +/- SD) | effect on CP-induced immunosuppression / immunostimulatory activity (conclusion) [2] | effect on CP-induced myelosuppression (conclusion) [2] | change in body weight | change in HA antibody titers | change in HL antibody titers | change in hemoglobin content | change in platelet counts | change in red cell counts | change in white cell differential counts | change in white cell total counts | CF Titre (Log2) [1] | other activity indicated (conclusion) [2]
O=S(=O)(O)CCS [Mesna] | 14.08 ± 1.689 g/dL | 608.83 +/− 239.813 ×10^3/mcl | 4.12 +/− 0.609 ×10^6/mcl | 62.42 +/− 9.902% | 37.58 +/− 9.902% | 3.67 +/− 1.218 ×10^3/mcl | 2.17 +/− 0.408 Log2 | -2.5 ± 1.049 g | no effect on body weight and CP-induced myelo and immunosuppression | no effect on body weight and CP-induced myelo and immunosuppression | no significant change | no significant change | no significant change | no significant change | no significant change | no significant change | no significant change | no significant change | – | –
O=C1O[C@H]([C@@H](O)CO)C(O)=C1O [Drug T, Vitamin C] | 15.37 ± 1.481 g/dL | 822.67 +/− 234.142 ×10^3/mcl | 4.25 +/− 0.661 ×10^6/mcl | 63.30 +/− 6.266% | 36.70 +/− 6.266% | 7.13 +/− 0.949 ×10^3/mcl | 5.33 +/− 0.516 Log2 | -2.67 ± 1.751 g | protective effect on CP-induced myelo and immunosuppression | protective effect on CP-induced myelo and immunosuppression | no significant change | significantly increased | significantly increased | significantly increased | No significant change | No significant change | no significant change | significantly increased | 5.67 +/− 0.516 Log2 | mild hematinic activity
